Measurements as given in patent US12410152B2, “Oxazole and thioazole-type cullin ring ubiquitin ligase compounds and uses thereof” (Proxygen GmbH, priority 2019, dated 2025).

Experiments:
[1] = tested on: KBM7 WT and UBE2Mmut cells; assay: Primary phenotypic screen, differential viability KBM7 WT vs UBE2M mutant; assay type: cell-based, human; conditions: 10 μM and 500 nM, 3 days
Method: Following this observation, it was rationalized that novel small molecule degraders can be identified in an unbiased manner, simply by searching for compounds that lose activity in the absence of UBE2M. 2000 small molecules, mostly of unknown function/target, were tested for their antiproliferative effects in human leukemia cells (KBM7). These cells were either transduced with a control sgRNA (KBM7WT), or with an sgRNA targeting UBE2M, leading to a hypomorph (deletion of six amino acids) with a functional impairment (UBE2Mmut).
KBM7^WT and UBE2M^mut cells were treated with a compound library (2000 cytotoxic diverse small-molecules, mostly of unknown function/target). Briefly, the screening was divided in three parts 1) primary screening, 2) follow up and 3) validation. During the primary screening, cells were treated with 10 μM and 500 nM of every compound. […] After 3 days of treatment, cell viability was measured (CellTiter Glo, Promega). The screen was perform in 384-well plates (Corning 3712) and the reagent/compound dispensing system used was: Echo 520 Liquid Handler, Multidrop™ Combi Reagent Dispenser. Control compounds were included in several wells, in all the plates. Method for validation of IC021313.2, IC020822.1, IC020772.1, T6938051 as described above in (i).

[2] = target: T1, CDK12/13 (Homo sapiens, UniProt Q9NYV4); assay: CDK12/13 destabilization (expression proteomics and Western blot); assay type: cell-based
T1 construct: endogenous in cells; host or cells: KBM7 cells
T1 sequence (Q9NYV4 whole entry): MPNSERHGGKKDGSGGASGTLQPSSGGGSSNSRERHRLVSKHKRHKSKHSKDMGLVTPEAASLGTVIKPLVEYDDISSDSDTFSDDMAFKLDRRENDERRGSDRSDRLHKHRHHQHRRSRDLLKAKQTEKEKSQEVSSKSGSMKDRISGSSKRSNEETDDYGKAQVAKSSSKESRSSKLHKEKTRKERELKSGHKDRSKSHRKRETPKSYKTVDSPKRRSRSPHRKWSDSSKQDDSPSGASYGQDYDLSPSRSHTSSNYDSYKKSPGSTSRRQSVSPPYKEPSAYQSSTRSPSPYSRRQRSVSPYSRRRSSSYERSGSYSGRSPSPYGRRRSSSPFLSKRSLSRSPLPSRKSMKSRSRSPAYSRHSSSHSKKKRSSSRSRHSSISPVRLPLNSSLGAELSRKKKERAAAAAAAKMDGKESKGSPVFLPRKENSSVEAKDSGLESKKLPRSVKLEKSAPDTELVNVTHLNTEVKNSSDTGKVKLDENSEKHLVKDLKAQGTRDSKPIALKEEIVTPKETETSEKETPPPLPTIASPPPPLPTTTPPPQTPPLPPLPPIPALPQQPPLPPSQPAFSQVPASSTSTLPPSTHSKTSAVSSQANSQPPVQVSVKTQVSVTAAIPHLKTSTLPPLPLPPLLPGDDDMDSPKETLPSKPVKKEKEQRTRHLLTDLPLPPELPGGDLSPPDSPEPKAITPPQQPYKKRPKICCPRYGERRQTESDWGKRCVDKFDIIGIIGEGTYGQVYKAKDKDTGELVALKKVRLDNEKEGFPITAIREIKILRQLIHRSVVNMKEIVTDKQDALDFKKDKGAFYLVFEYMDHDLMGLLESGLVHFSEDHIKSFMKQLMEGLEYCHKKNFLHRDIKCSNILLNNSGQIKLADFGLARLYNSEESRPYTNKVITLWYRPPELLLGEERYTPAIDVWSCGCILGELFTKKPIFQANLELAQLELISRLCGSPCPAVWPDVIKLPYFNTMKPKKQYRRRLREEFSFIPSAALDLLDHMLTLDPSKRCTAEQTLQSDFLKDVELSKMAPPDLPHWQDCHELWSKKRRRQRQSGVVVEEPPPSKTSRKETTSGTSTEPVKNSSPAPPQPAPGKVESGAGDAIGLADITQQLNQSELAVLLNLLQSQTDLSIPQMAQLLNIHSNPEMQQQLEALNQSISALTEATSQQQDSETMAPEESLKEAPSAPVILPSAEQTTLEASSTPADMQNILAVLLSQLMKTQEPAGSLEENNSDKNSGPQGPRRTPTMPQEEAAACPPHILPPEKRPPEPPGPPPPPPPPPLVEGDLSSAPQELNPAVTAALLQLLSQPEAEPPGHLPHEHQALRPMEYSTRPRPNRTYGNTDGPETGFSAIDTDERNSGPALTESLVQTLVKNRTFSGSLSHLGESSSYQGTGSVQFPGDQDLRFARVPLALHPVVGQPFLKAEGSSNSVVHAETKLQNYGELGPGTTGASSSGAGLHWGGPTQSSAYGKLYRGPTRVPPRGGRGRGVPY
T1 sequence (O75909 whole entry partner): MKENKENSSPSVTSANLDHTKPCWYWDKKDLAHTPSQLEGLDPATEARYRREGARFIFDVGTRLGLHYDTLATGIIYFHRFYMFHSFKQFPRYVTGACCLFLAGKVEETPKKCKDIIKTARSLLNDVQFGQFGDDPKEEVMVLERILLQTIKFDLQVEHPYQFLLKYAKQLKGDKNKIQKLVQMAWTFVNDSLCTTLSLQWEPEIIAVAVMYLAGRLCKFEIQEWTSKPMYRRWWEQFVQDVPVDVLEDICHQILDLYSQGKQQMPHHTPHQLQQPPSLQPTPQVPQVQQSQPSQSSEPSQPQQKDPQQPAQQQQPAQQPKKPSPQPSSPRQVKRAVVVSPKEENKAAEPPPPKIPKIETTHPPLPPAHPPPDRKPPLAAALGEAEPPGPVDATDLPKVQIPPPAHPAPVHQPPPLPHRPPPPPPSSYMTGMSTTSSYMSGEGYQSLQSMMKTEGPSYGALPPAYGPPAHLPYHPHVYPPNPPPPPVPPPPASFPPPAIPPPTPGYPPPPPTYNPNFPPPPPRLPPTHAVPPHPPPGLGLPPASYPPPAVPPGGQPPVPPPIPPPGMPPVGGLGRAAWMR
T1 sequence (Q16531 whole entry partner): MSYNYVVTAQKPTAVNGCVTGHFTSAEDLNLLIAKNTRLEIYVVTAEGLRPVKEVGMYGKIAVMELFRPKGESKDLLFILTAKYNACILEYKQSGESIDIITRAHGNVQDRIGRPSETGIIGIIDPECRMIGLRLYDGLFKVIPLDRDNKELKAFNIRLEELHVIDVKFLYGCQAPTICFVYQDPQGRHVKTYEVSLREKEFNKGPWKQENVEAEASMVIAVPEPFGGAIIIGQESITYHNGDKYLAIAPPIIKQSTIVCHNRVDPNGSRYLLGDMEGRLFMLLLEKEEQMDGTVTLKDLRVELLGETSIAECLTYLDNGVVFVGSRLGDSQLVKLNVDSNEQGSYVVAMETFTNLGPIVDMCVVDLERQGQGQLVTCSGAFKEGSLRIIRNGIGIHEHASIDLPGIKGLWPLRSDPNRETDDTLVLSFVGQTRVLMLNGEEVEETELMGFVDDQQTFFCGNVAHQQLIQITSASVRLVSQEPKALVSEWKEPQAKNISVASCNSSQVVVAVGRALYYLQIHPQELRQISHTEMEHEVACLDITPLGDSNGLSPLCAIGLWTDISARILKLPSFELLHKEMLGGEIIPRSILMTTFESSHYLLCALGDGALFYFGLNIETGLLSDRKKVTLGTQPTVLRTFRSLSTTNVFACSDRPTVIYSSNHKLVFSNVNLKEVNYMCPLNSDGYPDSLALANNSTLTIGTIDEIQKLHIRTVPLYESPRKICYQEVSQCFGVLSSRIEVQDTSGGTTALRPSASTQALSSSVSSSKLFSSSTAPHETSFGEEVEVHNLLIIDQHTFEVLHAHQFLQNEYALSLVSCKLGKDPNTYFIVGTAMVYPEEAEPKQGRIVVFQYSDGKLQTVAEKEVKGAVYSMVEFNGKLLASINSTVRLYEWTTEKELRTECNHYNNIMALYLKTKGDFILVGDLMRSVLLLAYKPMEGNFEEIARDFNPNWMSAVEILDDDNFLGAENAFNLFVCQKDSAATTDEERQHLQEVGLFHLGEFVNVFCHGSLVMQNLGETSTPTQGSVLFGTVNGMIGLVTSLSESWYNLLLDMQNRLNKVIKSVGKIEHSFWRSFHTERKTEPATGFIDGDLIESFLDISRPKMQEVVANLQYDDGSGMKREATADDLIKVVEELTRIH
Method: The hypomorphic phenotype of the mutated UBE2M allele in KBM7 cells (KBM7 UBE2M^mut cells) was assessed. In this regard, CRISPR/Cas9-induced mutation of UBE2M inactivated CRL activity including CRL4^CRBN and CRL2^VHL. […] Additionally, CCNK destabilization by all three compounds was validated via time-resolved immunoblots wherein CCNK degradation was evident after two hours (FIG. 19c).
PBS-washed cell pellets were lysed in 50 mM Tris pH 7.9, 8M Urea and 1% CHAPS and incubated with shaking at 4° C. for at least 30 min. 20 μg of supernatants were run and transferred for detection. Antibodies used: CUL1 (Santa Cruz Biotechnology, sc-1276), CUL2 (Sigma-Aldrich, SAB2501565-100), CUL3 (Cell Signaling Technology, 2759), CUL4A (Cell Signaling Technology, 2699S), CUL4B (Proteintech, 12916-1-AP), CUL5 (Santa Cruz Biotechnology, sc-373822), UBE2M (Santa Cruz Biotechnology, sc-390064), DDB1 (Cell Signaling Technology, 5428S), CCNK (Bethyl, A301-939A), CDK12 (Cell Signaling Technology, 11973S), CDK13 (Bethyl, A301-458A), RBM39 (1:500, Santa Cruz Biotechnology sc-376531), V5 (Cell Signaling Technology, 13202), Ubiquityl-Histone H2A (K119) (Cell Signaling, 8240-20). ACTIN (Sigma-Aldrich, A5441), VINCUL1N (Santa Cruz Biotechnology, sc-25336). Secondary antibodies anti-mouse/rabbit/goat (Jackson ImmunoResearch 115-035-003, 111-035-003 and 705-035-003).
Comparison of overall proteome-wide changes in KBM7 cells treated with IC020772.1 (2.5 μM), IC021313.2 (7 μM) or T6938051 (3.5 μM) for 5 h and 12h, using quantitative proteomics based on isobaric tagging.

[3] = target: T2, CDK12:CCNK and DDB1:CUL4B (Homo sapiens, UniProt Q16531+Q9NYV4); assay: Biotin proximity labeling with miniTurbo in live cells; assay type: cell-based; conditions: HEK/293T cells with DDB1- or CDK12-mTurbo fusions, carfilzomib 10 μM
T2 construct: expressed in transfected cells; host or cells: 293T (HEK) cells, transient transfection
T2 sequence (Q9NYV4 whole entry, the tested form may be a part): as the sequence (Q9NYV4 whole entry) above
T2 sequence (O75909 whole entry partner, the tested form may be a part): as the sequence (O75909 whole entry partner) above
T2 sequence (Q16531 whole entry, the tested form may be a part): as the sequence (Q16531 whole entry partner) above
Method: The direct, drug-induced association of CDK12:CCNK and DDB1:CUL4B was further assessed in a cellular assay based on enzyme-catalyzed proximity labeling via the efficient biotin ligase miniTurbo (mTurbo) (Branon, T. C. et al. Efficient proximity labeling in living cells and organisms with TurboID. Nat Biotechnol 36, 880-887, doi:10.1038/nbt.4201 (2018)) was performed. This assay enables recording dynamic changes in molecular proximity of an mTurbo-tagged bait protein by streptavidin purification of covalently biotinylated, proximal proteins. For this purpose, c-terminally tagged DDB1, or CDK12 mTurbo-fusions were transiently expressed in HEK cells. Cells were treated for one hour with C020772.1 or vehicle (DMSO) control, including a 30 minute biotin labeling pulse (FIG. 20 g, h). […] Vice-versa, DDB1 was only identified as CDK12 interactor after drug treatment, but was not purified after vehicle-control treatment (FIG. 20 h). […]
One 10-cm culture plate of 293T cells (70%-80% confluent) was transfected with 2 μg of pLenti_DDB1_miniTurbo_V5 or pLenti_CDK12_miniTurbo_V5 using Lipofectamine 2000 (Invitrogen, 11668019). […] Eluates were analyzed by WB. Quantification was performed with ImageJ.

Row | Compound | hit in differential viability screen [1] | logFC (IC021313.2/DMSO), CDK12 (Q9NYV4-1) ([2]; expression proteomics, drug vs DMSO, Table 4, log2FC < −0.3) | log2FC (IC020772.1/DMSO) ([2]; CDK12 (Q9NYV4-1)) | drug-induced CDK12-DDB1 proximity (biotin labeling) [3]
1 | Cc1ccc(C(=O)N2CSCC2C(=O)N=c2[nH]cc(C)s2)o1 (stereo not drawn) [Compound T6938051] | stood out in terms of fold-change significance |  |  | 
2 | O=C(CSc1nc2ccccc2[nH]1)Nc1ccc(Cl)cn1 [IC021313.2] | stood out in terms of fold-change significance | −0.897 |  | 
3 | O=C(CSc1nnc2c(n1)[nH]c1ccccc12)Nc1ccc(Cl)cn1 [IC020772.1] | stood out in terms of fold-change significance |  | −1.171 | CDK12 interactions with DDB1 were exclusively identified in the presence of IC020772.1
